{"source": "patent US9346799B2", "about": "“Useful combinations of monobactam antibiotics with beta-lactamase inhibitors” (Basilea Pharmaceutica AG, priority 2005, dated 2016)", "test_in_all_cases": "MIC by broth microdilution (NCCLS M7-A5)", "key": {"[1]": {"system": "Enterobacter aerogenes Zayakosky", "details": "for MIC of antibiotic: Enterobacter aerogenes Zayakosky 5"}, "[2]": {"system": "Enterobacter aerogenes B1", "details": "E. aerogenes B1; + compound 323 and sulbactam, 4 mg/L each"}, "Acinetobacter sp. J2": {"system": "Acinetobacter sp. J2", "details": "Acinetobacter baumannii J2"}, "[3]": {"system": "Pseudomonas aeruginosa MK1184"}, "[4]": {"system": "Pseudomonas aeruginosa 1973E"}, "[5]": {"system": "Klebsiella pneumoniae CF104"}, "Serratia marcescens S6": {"system": "Serratia marcescens S6"}, "[6]": {"system": "Stenotrophomonas malthophilia 1AC736", "details": "Stenotrophomonas maltophilia 1AC736"}, "[7]": {"system": "Acinetobacter baumannii J51", "format": "cell-based", "method": "Antimicrobial activity of the compounds and of their combinations was determined against a selection of organisms according to the standard procedures described by the National Committee for Clinical Laboratory Standards (National Committee for Clinical Laboratory. Standards (2000). Methods for Dilution Antimicrobial Susceptibility Tests for Bacteria That Grow Aerobically-Fifth Edition: Approved Standard M7-A5. NCCLS, Wayne, Pa., USA).\nIn all cases the final concentration of DMSO incubated with the bacteria is less than or equal to 1%. […] Plates were incubated overnight at an appropriate temperature (30° C. or 37° C.) and optical densities assessed by eye. The MIC value is defined as the lowest compound concentration completely inhibiting visible growth of the test organism. When combinations between compounds of formula I with compounds of formula II and are evaluated the compounds of formula I are tested in dilution series as described above while the compounds of formula II and III-XIII were present in all wells at a constant concentration of 4 μg/mL each."}, "Enterobacter cloacae P99": {"system": "Enterobacter cloacae P99"}, "[8]": {"details": "+ 102 + clavulanate, 4 mg/L each"}, "[9]": {"details": "+ 324 + clavulanate, 4 mg/L each"}}}
{"smiles": "C[C@H]1[C@H](NC(=O)/C(=N\\OC(C)(C)C(=O)O)c2csc(N)n2)C(=O)N1S(=O)(=O)O", "note": "[Aztreonam, aztreonam, reference compound]", "values": [{"measurement": "Minimal Inhibitory Concentration of antibiotic", "setting": "[1]; E. aerogenes Zayakosky, + compound 323 and sulbactam, 4 mg/L each", "value": 8, "unit": "mg/L"}, {"measurement": "Minimal Inhibitory Concentration of antibiotic", "setting": "[2]", "value": 8, "unit": "mg/L"}, {"measurement": "MIC of antibiotic", "setting": "Acinetobacter sp. J2; [8]", "value": 16, "unit": "µg/mL"}, {"measurement": "MIC of antibiotic", "setting": "Acinetobacter sp. J2; + 102 + sulbactam, 4 mg/L each", "value": 4, "unit": "µg/mL"}, {"measurement": "MIC of antibiotic", "setting": "[3]; + 102 + sulbactam, 4 mg/L each", "value": 16, "unit": "µg/mL"}, {"measurement": "MIC of antibiotic", "setting": "[4]; [8]", "value": 8, "unit": "µg/mL"}, {"measurement": "MIC of antibiotic", "setting": "[4]; + 102 + sulbactam, 4 mg/L each", "value": 4, "unit": "µg/mL"}, {"measurement": "MIC of antibiotic", "setting": "[5]; [8]", "value": 0.5, "unit": "µg/mL"}, {"measurement": "MIC of antibiotic", "setting": "[5]; + 102 + sulbactam, 4 mg/L each", "value": 1, "unit": "µg/mL"}, {"measurement": "MIC of antibiotic", "setting": "Serratia marcescens S6; [8]", "value": 2, "unit": "µg/mL"}, {"measurement": "MIC of antibiotic", "setting": "Serratia marcescens S6; + 102 + sulbactam, 4 mg/L each", "value": 2, "unit": "µg/mL"}, {"measurement": "MIC of antibiotic", "setting": "[6]; [8]", "value": 4, "unit": "µg/mL"}, {"measurement": "MIC of antibiotic", "setting": "[6]; + 102 + sulbactam, 4 mg/L each", "value": 8, "unit": "µg/mL"}]}
{"smiles": "CC1(C)[C@H](NC(=O)/C(=N\\OCc2cc(=O)c(O)cn2O)c2csc(N)n2)C(=O)N1OS(=O)(=O)O", "note": "[Compound 26, (3S)-3-{(2Z)-2-(2-amino(1,3-thiazol-4-yl))-3-[(1,5-dihydroxy-4-oxo(2-hydropyridyl))methoxy]-3-azaprop-2-enoylamino}-4,4-dimethyl-2-oxoazetidinyl hydroxysulfonate]", "values": [{"measurement": "MIC of antibiotic", "setting": "[7]; + 324 4 mg/L", "value": 2, "unit": "µg/mL"}, {"measurement": "MIC of antibiotic", "setting": "[7]; + BRL427158 4 mg/L", "value": 32, "unit": "µg/mL"}, {"measurement": "MIC of antibiotic", "setting": "[7]; + clavulanic acid 4 mg/L", "value": 1, "unit": "µg/mL"}, {"measurement": "MIC of antibiotic", "setting": "[7]; antibiotic alone", "value": 4, "unit": "µg/mL"}, {"measurement": "MIC of antibiotic", "setting": "[1]; + 324 4 mg/L", "value": 4, "unit": "µg/mL"}, {"measurement": "MIC of antibiotic", "setting": "[1]; + BRL427158 4 mg/L", "value": 0.5, "unit": "µg/mL"}, {"measurement": "MIC of antibiotic", "setting": "[1]; + clavulanic acid 4 mg/L", "value": 8, "unit": "µg/mL"}, {"measurement": "MIC of antibiotic", "setting": "[1]; antibiotic alone", "value": 16, "unit": "µg/mL"}, {"measurement": "MIC of antibiotic", "setting": "Acinetobacter sp. J2; + 324 4 mg/L", "value": 4, "unit": "µg/mL"}, {"measurement": "MIC of antibiotic", "setting": "Acinetobacter sp. J2; + 324 + sulbactam, 4 mg/L each", "value": 2, "unit": "µg/mL"}, {"measurement": "MIC of antibiotic", "setting": "Acinetobacter sp. J2; + BRL427158 4 mg/L", "value": 0.5, "unit": "µg/mL"}, {"measurement": "MIC of antibiotic", "setting": "Acinetobacter sp. J2; + clavulanate 4 mg/L", "value": ">32", "unit": "µg/mL"}, {"measurement": "MIC of antibiotic", "setting": "Acinetobacter sp. J2; antibiotic alone", "value": 4, "unit": "µg/mL"}, {"measurement": "MIC of antibiotic", "setting": "[3]; + 324 4 mg/L", "value": 4, "unit": "µg/mL"}, {"measurement": "MIC of antibiotic", "setting": "[3]; + 324 + sulbactam, 4 mg/L each", "value": 2, "unit": "µg/mL"}, {"measurement": "MIC of antibiotic", "setting": "[3]; + BRL427158 4 mg/L", "value": 2, "unit": "µg/mL"}, {"measurement": "MIC of antibiotic", "setting": "[3]; + clavulanate 4 mg/L", "value": 4, "unit": "µg/mL"}, {"measurement": "MIC of antibiotic", "setting": "[3]; antibiotic alone", "value": 2, "unit": "µg/mL"}, {"measurement": "MIC of antibiotic", "setting": "[4]; + 324 4 mg/L", "value": 4, "unit": "µg/mL"}, {"measurement": "MIC of antibiotic", "setting": "[4]; + 324 + sulbactam, 4 mg/L each", "value": 2, "unit": "µg/mL"}, {"measurement": "MIC of antibiotic", "setting": "[4]; + BRL427158 4 mg/L", "value": 2, "unit": "µg/mL"}, {"measurement": "MIC of antibiotic", "setting": "[4]; + clavulanate 4 mg/L", "value": 2, "unit": "µg/mL"}, {"measurement": "MIC of antibiotic", "setting": "[4]; antibiotic alone", "value": 16, "unit": "µg/mL"}, {"measurement": "MIC of antibiotic", "setting": "Enterobacter cloacae P99; + 324 4 mg/L", "value": 2, "unit": "µg/mL"}, {"measurement": "MIC of antibiotic", "setting": "Enterobacter cloacae P99; + 324 + sulbactam, 4 mg/L each", "value": 2, "unit": "µg/mL"}, {"measurement": "MIC of antibiotic", "setting": "Enterobacter cloacae P99; + BRL427158 4 mg/L", "value": 2, "unit": "µg/mL"}, {"measurement": "MIC of antibiotic", "setting": "Enterobacter cloacae P99; + clavulanate 4 mg/L", "value": 8, "unit": "µg/mL"}, {"measurement": "MIC of antibiotic", "setting": "Enterobacter cloacae P99; antibiotic alone", "value": 16, "unit": "µg/mL"}, {"measurement": "MIC of antibiotic", "setting": "[5]; + 324 4 mg/L", "value": 16, "unit": "µg/mL"}, {"measurement": "MIC of antibiotic", "setting": "[5]; + 324 + sulbactam, 4 mg/L each", "value": 1, "unit": "µg/mL"}, {"measurement": "MIC of antibiotic", "setting": "[5]; + BRL427158 4 mg/L", "value": 0.125, "unit": "µg/mL"}, {"measurement": "MIC of antibiotic", "setting": "[5]; + clavulanate 4 mg/L", "value": 0.5, "unit": "µg/mL"}, {"measurement": "MIC of antibiotic", "setting": "[5]; antibiotic alone", "value": 32, "unit": "µg/mL"}, {"measurement": "MIC of antibiotic", "setting": "Serratia marcescens S6; + 324 4 mg/L", "value": "≦0.06 mg/L"}, {"measurement": "MIC of antibiotic", "setting": "Serratia marcescens S6; + 324 + sulbactam, 4 mg/L each", "value": "<0.06", "unit": "µg/mL"}, {"measurement": "MIC of antibiotic", "setting": "Serratia marcescens S6; + BRL427158 4 mg/L", "value": "≦0.06 mg/L"}, {"measurement": "MIC of antibiotic", "setting": "Serratia marcescens S6; + clavulanate 4 mg/L", "value": "≦0.06 mg/L"}, {"measurement": "MIC of antibiotic", "setting": "Serratia marcescens S6; antibiotic alone", "value": "<0.06", "unit": "µg/mL"}, {"measurement": "MIC of antibiotic", "setting": "[6]; + 324 4 mg/L", "value": 0.25, "unit": "µg/mL"}, {"measurement": "MIC of antibiotic", "setting": "[6]; + 324 + sulbactam, 4 mg/L each", "value": 0.25, "unit": "µg/mL"}, {"measurement": "MIC of antibiotic", "setting": "[6]; + BRL427158 4 mg/L", "value": 0.125, "unit": "µg/mL"}, {"measurement": "MIC of antibiotic", "setting": "[6]; + clavulanate 4 mg/L", "value": "≦0.06 mg/L"}, {"measurement": "MIC of antibiotic", "setting": "[6]; antibiotic alone", "value": "<0.06", "unit": "µg/mL"}]}
{"smiles": "NC(=O)OCC1C(NC(=O)C(=NOCc2cc(=O)c(O)cn2O)c2nc(N)sc2Cl)C(=O)N1OS(=O)(=O)O", "note": "(centres unmarked) [Compound 47]", "values": [{"measurement": "MIC of antibiotic", "setting": "Acinetobacter sp. J2; [8]", "value": ">32", "unit": "µg/mL"}, {"measurement": "MIC of antibiotic", "setting": "Acinetobacter sp. J2; [9]", "value": ">32", "unit": "µg/mL"}, {"measurement": "MIC of antibiotic", "setting": "Acinetobacter sp. J2; antibiotic alone", "value": ">32", "unit": "µg/mL"}, {"measurement": "MIC of antibiotic", "setting": "[3]; [8]", "value": 2, "unit": "µg/mL"}, {"measurement": "MIC of antibiotic", "setting": "[3]; [9]", "value": 4, "unit": "µg/mL"}, {"measurement": "MIC of antibiotic", "setting": "[3]; antibiotic alone", "value": 4, "unit": "µg/mL"}, {"measurement": "MIC of antibiotic", "setting": "[4]; [8]", "value": 4, "unit": "µg/mL"}, {"measurement": "MIC of antibiotic", "setting": "[4]; [9]", "value": 8, "unit": "µg/mL"}, {"measurement": "MIC of antibiotic", "setting": "[4]; antibiotic alone", "value": 8, "unit": "µg/mL"}, {"measurement": "MIC of antibiotic", "setting": "Enterobacter cloacae P99; [8]", "value": 16, "unit": "µg/mL"}, {"measurement": "MIC of antibiotic", "setting": "Enterobacter cloacae P99; [9]", "value": 32, "unit": "µg/mL"}, {"measurement": "MIC of antibiotic", "setting": "Enterobacter cloacae P99; antibiotic alone", "value": ">32", "unit": "µg/mL"}, {"measurement": "MIC of antibiotic", "setting": "[5]; [8]", "value": 4, "unit": "µg/mL"}, {"measurement": "MIC of antibiotic", "setting": "[5]; [9]", "value": 2, "unit": "µg/mL"}, {"measurement": "MIC of antibiotic", "setting": "[5]; antibiotic alone", "value": ">32", "unit": "µg/mL"}, {"measurement": "MIC of antibiotic", "setting": "Serratia marcescens S6; [8]", "value": 2, "unit": "µg/mL"}, {"measurement": "MIC of antibiotic", "setting": "Serratia marcescens S6; [9]", "value": 2, "unit": "µg/mL"}, {"measurement": "MIC of antibiotic", "setting": "Serratia marcescens S6; antibiotic alone", "value": 2, "unit": "µg/mL"}, {"measurement": "MIC of antibiotic", "setting": "[6]; [8]", "value": 1, "unit": "µg/mL"}, {"measurement": "MIC of antibiotic", "setting": "[6]; [9]", "value": 1, "unit": "µg/mL"}, {"measurement": "MIC of antibiotic", "setting": "[6]; antibiotic alone", "value": 1, "unit": "µg/mL"}]}
